Common to all, as to assay: weeding effect in post-emergence stage
What all share (assay type): in vivo

Assay [1] concerns Alopecurus japonicus. The source says:
(§1) The activity level criteria for plant damage (i.e., growth control rate) are as follows: • Level 5: growth control rate is above 85%; • Level 4: growth control rate is greater than or equal to 60% and less than 85%; • Level 3: growth control rate is greater than or equal to 40% and less than 60%; • Level 2: growth control rate is greater than or equal to 20% and less than 40%; • Level 1: growth control rate is greater than or equal to 5% and less than 20%; • Level 0: growth control rate is less than 5%.
(§2) The above growth control rates are fresh weight control rates.
(§3) Experiment on weeding effect in post-emergence stage:
(§4) Monocotyledonous and dicotyledonous weed seeds (Descurainia sophia, Capsella bursa-pastoris, Abutilon theophrasti, Galium aparine, Stellaria media, Lithospermum arvense, Rorippa indica, Alopecurus aequalis, Alopecurus japonicus, Beckmannia syzigachne, Sclerochloa dura, Conyza Canadensis, Phleum paniculatum, Veronica didyma Tenore, Bromus japonicus, Aegilops tauschii, Phalaris arundinacea, Amaranthus retroflexus, Chenopodium album, Commelina communis, Sonchus arvensis, Convolvulus arvensis, Cirsium setosum, Solanum nigrum, Acalypha australis, Digitaria sanguinalis, Echinochloa crusgalli, Setaria viridis, Setaria glauca, Leptochloa chinensis, Monochoria vaginalis, Sagittaria trifolia, Scirpus juncoides, Cyperus rotundus, Cyperus iria, Cyperus difformis, Fimbristylis, Portulaca oleracea, Xanthium sibiricum, Pharbitis nil, Conyza japonica, etc.) and major crop seeds (wheat, corn, rice, soybean, cotton, oilseed rape, millet, sorghum, potato, sesame, ricinus, etc.) were placed in plastic pots filled with soil, then covered with 0.5-2 cm of soil, allowed to grow in a good greenhouse environment. After 2 weeks of sowing, the test plants were treated in the 2-3 leaf stage. The tested compounds of the present invention were respectively dissolved in acetone, then added with Tween 80 and 1.5 liter/ha of emulsifiable concentrate of methyl oleate as synergist, diluted with a certain amount of water to obtain a solution with a certain concentration, and sprayed with a spray tower onto the plants. After the application, the plants were cultured for 3 weeks in the greenhouse, and then the experimental results of the weeding were counted. The doses of the used compounds were 500, 250, 125, 60, 15, 7.5 g a.i./ha, and the averages were obtained by repeating for three times.

Assay [2] relates to Beckmannia syzigachne.
Description: as §1, §2, §3, §4

The test system of assay [3] is Conyza japonica.
Description: as §1, §2, §3, §4

The test system of assay [4] is Rorippa indica.
Description: as §1, §2, §3, §4

Regarding `CCOC(=O)COC(C)C1(C(=O)OCC)CC(c2cc(-n3c(=O)n(C)c(=S)n(C)c3=O)c(F)cc2Cl)=NO1` (mixture of isomers) [Compound 55], the “weeding effect in post-emergence stage, Alopecurus japonicus (activity level)” value in assay [1] (dose 125 g a.i./ha) is on record as 5 (Level 5: growth control rate is above 85%). In addition, in assay [2] (dose 125 g a.i./ha), the “weeding effect in post-emergence stage, Beckmannia syzigachne (activity level)” value is listed as 5 (Level 5: growth control rate is above 85%). Also, the “weeding effect in post-emergence stage, Conyza japonica (activity level)” value in assay [3] (dose 125 g a.i./ha) is reported as 5 (Level 5: growth control rate is above 85%). For the same compound, in assay [4] (dose 125 g a.i./ha), the “weeding effect in post-emergence stage, Rorippa indica (activity level)” value (“weeding effect … Rorippa indica (activity level)” below) was 5 (Level 5: growth control rate is above 85%).
On to `CCOC(=O)C1(CC)CC(c2cc(-n3c(=O)n(C)c(=S)n(C)c3=O)c(F)cc2Cl)=NO1` (racemic) [Compound 3], for which the “weeding effect in post-emergence stage, Alopecurus japonicus (activity level)” value in assay [1] (dose 15 g a.i./ha) and in assay [1] (dose 125 g a.i./ha) was 5 (Level 5: growth control rate is above 85%) each time. For the same compound, the “weeding effect in post-emergence stage, Beckmannia syzigachne (activity level)” value in assay [2] (dose 15 g a.i./ha) and in assay [2] (dose 125 g a.i./ha) was 5 (Level 5: growth control rate is above 85%) each time. The “weeding effect in post-emergence stage, Conyza japonica (activity level)” value in assay [3] (dose 15 g a.i./ha) and in assay [3] (dose 125 g a.i./ha) was 5 (Level 5: growth control rate is above 85%) throughout. Moreover, the “weeding effect … Rorippa indica (activity level)” value in assay [4] (dose 15 g a.i./ha) and in assay [4] (dose 125 g a.i./ha) was 5 (Level 5: growth control rate is above 85%) throughout.
`CCCC1(C(=O)OCC)CC(c2cc(-n3c(=O)n(C)c(=S)n(C)c3=O)c(F)cc2Cl)=NO1` (racemic) [Compound 4]: the “weeding effect in post-emergence stage, Alopecurus japonicus (activity level)” value in assay [1] (dose 15 g a.i./ha) and in assay [1] (dose 125 g a.i./ha) was 5 (Level 5: growth control rate is above 85%) throughout. The “weeding effect in post-emergence stage, Beckmannia syzigachne (activity level)” value in assay [2] (dose 15 g a.i./ha) was 4 (Level 4: growth control rate is greater than or equal to 60% and less than 85%); in assay [2] (dose 125 g a.i./ha), 5 (Level 5: growth control rate is above 85%). For the same compound, the “weeding effect in post-emergence stage, Conyza japonica (activity level)” value in assay [3] (dose 15 g a.i./ha) is 4 (Level 4: growth control rate is greater than or equal to 60% and less than 85%); in assay [3] (dose 125 g a.i./ha) it was 5 (Level 5: growth control rate is above 85%). Further, the “weeding effect … Rorippa indica (activity level)” value in assay [4] (dose 15 g a.i./ha) and in assay [4] (dose 125 g a.i./ha) was 5 (Level 5: growth control rate is above 85%) each time.
For the compound `CCOC(=O)C1(C(C)C)CC(c2cc(-n3c(=O)n(C)c(=S)n(C)c3=O)c(F)cc2Cl)=NO1` (racemic) [Compound 5], the “weeding effect in post-emergence stage, Alopecurus japonicus (activity level)” value in assay [1] (dose 15 g a.i./ha) and in assay [1] (dose 125 g a.i./ha) was 5 (Level 5: growth control rate is above 85%) throughout. Moreover, the “weeding effect in post-emergence stage, Beckmannia syzigachne (activity level)” value in assay [2] (dose 15 g a.i./ha) is 4 (Level 4: growth control rate is greater than or equal to 60% and less than 85%); in assay [2] (dose 125 g a.i./ha), 5 (Level 5: growth control rate is above 85%). Also, the “weeding effect in post-emergence stage, Conyza japonica (activity level)” value in assay [3] (dose 15 g a.i./ha) was 4 (Level 4: growth control rate is greater than or equal to 60% and less than 85%); in assay [3] (dose 125 g a.i./ha) it was 5 (Level 5: growth control rate is above 85%). The “weeding effect … Rorippa indica (activity level)” value in assay [4] (dose 15 g a.i./ha) and in assay [4] (dose 125 g a.i./ha) was 5 (Level 5: growth control rate is above 85%) each time.

These data come from US12509452B2, “Substituted-isoxazoline-containing aromatic compound, preparation method therefor, herbicidal composition and use thereof” (QINGDAO KINGAGROOT CHEMICAL COMPOUND CO., LTD., priority 2019, dated 2025).
